Like-named read-outs stand apart in the source and are kept apart here.
What was measured:
[1] = test system: A2780/AD cells; assay: In vitro cytotoxicity (WSK-8) assay; format: cell-based
Protocol: In vitro cytotoxicity (WSK-8) assays
The proliferation of exponential phase cultures of A2780/AD cells was assessed by colorimetric assay (WSK-8). In brief, cells were plated onto a 96 well microtiter plates at 5,000 cells per well. After a 24 hour incubation period to facilitate adherence, the RPMI media was removed and replaced with 100 or 200 μL of fresh media containing the different concentrations of drug. The cells were then incubated for 1 or 3 days at 37 °C at 95% humidity and 5% CO2. The media was then removed, and replaced with 100 μL fresh media containing 10% WSK-8 dye. The plates were incubated for 1.5 hours and subsequently measured at 450 nm with a 96-well plate reader. A non-linear curve fitted to the concentrations tested was used and the data plotted using Origin software. Each concentration was run in triplicate, and drug was tested 3 times.

[2] = test system: reduced folate carrier (RFC); details: cited from earlier work
[3] = test system: folate receptor (FR); details: cited from earlier work
[4] = target: T1, dihydrofolate reductase (DHFR) (Homo sapiens, UniProt P00374); assay: In vitro, cell free DHFR inhibition assay; format: biochemical; details: cell free colorimetric assay, absorbance over 2.5 minutes
T1 construct: purchased Sigma Aldrich
T1 sequence (P00374 1-187): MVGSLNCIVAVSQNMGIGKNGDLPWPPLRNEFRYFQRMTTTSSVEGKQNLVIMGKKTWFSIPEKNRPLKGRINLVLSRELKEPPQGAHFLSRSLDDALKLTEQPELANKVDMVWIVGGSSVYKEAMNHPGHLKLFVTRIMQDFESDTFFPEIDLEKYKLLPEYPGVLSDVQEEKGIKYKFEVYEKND
Protocol: In vitro, cell free DHFR inhibition assay
The DHFR calorimetric assay was purchased from Sigma Aldrich, and was performed according to instructions. Briefly, DHFR was mixed with inhibitor and NADPH.
The percent of control was plotted, and a fit using a power regression line used.

[5] = Stability study in PBS buffer (HPLC); format: physicochemical; details: phosphate buffered saline pH 7.4, 37 °C
Protocol: To explain the in vitro results, the stability of the compounds was examined. (3) was dissolved in phosphate buffered saline at a pH of 7.4, and incubated at 37 °C. Time points were taken at 24 and 72 hours. […] While not completely stable over the time tested, the stability of the carbamate linkage could be preventing the nucleoside from being released in the cell over the earlier time points. This is consistent with previous nucleoside conjugate work reported and the observation that (2) and (3) have a greater toxicity at 72 hours than the carrier system (1). The delay in the release could explain the discrepancies between the conjugated and the unconjugated systems.
(3) was dissolved in PBS buffer 1 at pH 7.4 in a concentration of [l mM]. The solution was incubated at 37 °C for 24 and 72 hours. Samples from the solution were examined using the HPLC Eclipse XDB C18 analytical column (4.6 × […]; Agilent Technologies). The method conditions were the same as the purification with a flow rate of 0.7 ml/min.

[6] = A2780AD, 24 h, read-out: In vitro IC50, 24 hours
[7] = A2780AD, 72 h, read-out: In vitro IC50, 72 hours
[8] = A2780/AD ovarian cancer cell line, 24 hours incubation, folate deficient media, read-out: In vitro IC50, 24 hours
[9] = A2780/AD ovarian cancer cell line, 72 hours incubation, folate deficient media, read-out: In vitro IC50, 72 hours

CN(Cc1cnc2nc(N)nc(N)c2n1)c1ccc(C(=O)N[C@@H](CCC(=O)O)C(=O)O)cc1 [MTX, Methotrexate]
IC50 [1, 6]: > 10000 µM | IC50 [1, 7]: 7000 ± 900 µM | Km [2]: 5 to 10 µM | Greater affinity for the RFC over folate ([2]; relative to folate): 100 times | Lower affinity of FR for MTX over folate ([3]; relative to folate): approximately 100 fold | Less affinity for the FR than oxidized folate ([3]; relative to oxidized folate): 100 fold

Nc1nc(=O)c2nc(CNc3ccc(C(=O)N[C@@H](CCC(=O)O)C(=O)O)cc3)cnc2[nH]1 [Folate, Folic acid]
Km [2]: 200 to 400 µM

γ-MTX-PEG-AZT [Compound 2]
IC50 [1, 8]: > 1000 µM | IC50 [1, 9]: 430 ± 30 µM | IC50 [4]: 152 µM

γ-MTX-PEG-IUdR [Compound 3]
Stability, free nucleoside after 24 hours ([5]; 24 hours): no sign of free nucleoside | Stability, free nucleoside after 72 hours ([5]; 72 hours): partial decomposition | IC50 [1, 8]: > 1000 µM | IC50 [1, 9]: 211 ± 100 µM | IC50 [4]: 394 µM

γ-MTX-PEG-ddC [Compound 4]
IC50 [1, 8]: > 1000 µM | IC50 [1, 9]: 960 ± 80 µM | IC50 [4]: 178 µM

Cc1cn([C@H]2C[C@H](N=[N+]=[N-])[C@@H](CO)O2)c(=O)[nH]c1=O [AZT, 3’-Azido-3’-deoxythymidine, reference compound]
IC50 [1, 6]: > 10000 µM | IC50 [1, 7]: 8000 ± 1000 µM

γ-MTX-PEG-NH2 [Compound 1]
IC50 [1, 8]: > 1000 µM | IC50 [1, 9]: 700 ± 100 µM | IC50 [4]: 200 µM
